Data published in the supplement of paper PMC10307832.

Tests used:
Assay in all cases: relative viability (nuclei count vs DMSO), 5 days (fraction); higher = more cells survive
Ponatinib = compound: Cc1ccc(C(=O)Nc2ccc(CN3CCN(C)CC3)c(C(F)(F)F)c2)cc1C#Cc1cnc2cccnn12 [Ponatinib]
In short: (§1)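 A plate was accepted only when its control CV was below 25% and the cells had doubled at least once. Viability is defined from nuclear counts as treated wells divided by vehicle wells, with the median taken across plates. That median covers lung cancer cell lines grown in 1536-well plates, dosed by pinning at five √10-spaced library-drug concentrations, and counted in MetaXpress from 4× Hoechst images after 5 days.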

Pazopanib = compound: Cc1ccc(Nc2nccc(N(C)c3ccc4c(C)n(C)nc4c3)n2)cc1S(N)(=O)=O [Pazopanib]
In short: as §1

Ponatinib + Alpelisib = compound: Cc1ccc(C(=O)Nc2ccc(CN3CCN(C)CC3)c(C(F)(F)F)c2)cc1C#Cc1cnc2cccnn12 [Ponatinib] + Cc1nc(NC(=O)N2CCC[C@H]2C(N)=O)sc1-c1ccnc(C(C)(C)C(F)(F)F)c1 [Alpelisib] (partner 2 µM)
In short: (§2)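 Cells from lung cancer lines were seeded into 1536-well plates and, one day later, dosed by pin tool. Treatments were either a single drug or a fixed dose of an anchor drug with five library-drug doses (not always all listed) in √10 steps. After 5 days, nuclei were stained in a one-step fixation (final 0.05% Triton X-100, 1% formaldehyde, 1 ug/ml Hoechst) and counted on 4× images, and relative viability is the treated-to-vehicle nuclei ratio, as the median of duplicate plates.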

Pazopanib + Pemetrexed = compound: Cc1ccc(Nc2nccc(N(C)c3ccc4c(C)n(C)nc4c3)n2)cc1S(N)(=O)=O [Pazopanib] + Nc1nc2[nH]cc(CCc3ccc(C(=O)N[C@@H](CCC(=O)O)C(=O)O)cc3)c2c(=O)[nH]1 [Pemetrexed] (partner 0.2 µM)
In short: as §2

HCC-366 showed a relative viability (Ponatinib; 0.002 µM) of 1.03, a relative viability (Ponatinib; 0.006325 µM) of 1.04 and a relative viability (Ponatinib; 0.06325 µM) of 1.05. For the same cell line, the relative viability (Ponatinib; 0.2 µM) was 0.989, the relative viability (Pazopanib; 0.01 µM) was 0.922 and the relative viability (Pazopanib; 0.03162 µM) was 0.989. It also gave a relative viability (Pazopanib; 0.1 µM) of 1.03, a relative viability (Pazopanib; 0.3162 µM) of 1 and a relative viability (Pazopanib; 1 µM) of 1.1. It also gave a relative viability (Ponatinib + Alpelisib; first compound 0.002 µM) of 0.375, a relative viability (Ponatinib + Alpelisib; first compound 0.006325 µM) of 0.43 and a relative viability (Ponatinib + Alpelisib; first compound 0.06325 µM) of 0.69. The relative viability (Ponatinib + Alpelisib; first compound 0.2 µM) was 0.376, the relative viability (Pazopanib + Pemetrexed; first compound 0.01 µM) was 0.298 and the relative viability (Pazopanib + Pemetrexed; first compound 0.03162 µM) was 0.141. For the same cell line, the relative viability (Pazopanib + Pemetrexed; first compound 0.1 µM) was 0.16, the relative viability (Pazopanib + Pemetrexed; first compound 0.3162 µM) was 0.159 and the relative viability (Pazopanib + Pemetrexed; first compound 1 µM) was 0.131.
HCC-827 showed a relative viability (Ponatinib; 0.002 µM) of 0.983, a relative viability (Ponatinib; 0.006325 µM) of 1.03 and a relative viability (Ponatinib; 0.06325 µM) of 1.07. The relative viability (Ponatinib; 0.2 µM) was 1.03, the relative viability (Pazopanib; 0.01 µM) was 1.11 and the relative viability (Pazopanib; 0.03162 µM) was 1.06. For the same cell line, the relative viability (Pazopanib; 0.1 µM) was 1.04, the relative viability (Pazopanib; 0.3162 µM) was 1.07 and the relative viability (Pazopanib; 1 µM) was 1.04. For the same cell line, the relative viability (Ponatinib + Alpelisib; first compound 0.002 µM) was 1.01, the relative viability (Ponatinib + Alpelisib; first compound 0.006325 µM) was 0.987 and the relative viability (Ponatinib + Alpelisib; first compound 0.06325 µM) was 1.01. It also gave a relative viability (Ponatinib + Alpelisib; first compound 0.2 µM) of 1.01, a relative viability (Pazopanib + Pemetrexed; first compound 0.01 µM) of 0.272 and a relative viability (Pazopanib + Pemetrexed; first compound 0.03162 µM) of 0.211. For the same cell line, the relative viability (Pazopanib + Pemetrexed; first compound 0.1 µM) was 0.259, the relative viability (Pazopanib + Pemetrexed; first compound 0.3162 µM) was 0.273 and the relative viability (Pazopanib + Pemetrexed; first compound 1 µM) was 0.247.
In the case of HOP-62, the relative viability (Ponatinib; 0.002 µM) is reported as 0.921, the relative viability (Ponatinib; 0.006325 µM) is reported as 0.86 and the relative viability (Ponatinib; 0.06325 µM) is reported as 0.912. For the same cell line, the relative viability (Ponatinib; 0.2 µM) was 0.857, the relative viability (Pazopanib; 0.01 µM) was 0.963 and the relative viability (Pazopanib; 0.03162 µM) was 1. The relative viability (Pazopanib; 0.1 µM) was 1.02, the relative viability (Pazopanib; 0.3162 µM) was 1.07 and the relative viability (Pazopanib; 1 µM) was 0.958. For the same cell line, the relative viability (Ponatinib + Alpelisib; first compound 0.002 µM) was 0.782, the relative viability (Ponatinib + Alpelisib; first compound 0.006325 µM) was 0.871 and the relative viability (Ponatinib + Alpelisib; first compound 0.06325 µM) was 0.652. The relative viability (Ponatinib + Alpelisib; first compound 0.2 µM) was 0.718, the relative viability (Pazopanib + Pemetrexed; first compound 0.01 µM) was 0.366 and the relative viability (Pazopanib + Pemetrexed; first compound 0.03162 µM) was 0.36. For the same cell line, the relative viability (Pazopanib + Pemetrexed; first compound 0.1 µM) was 0.339, the relative viability (Pazopanib + Pemetrexed; first compound 0.3162 µM) was 0.3 and the relative viability (Pazopanib + Pemetrexed; first compound 1 µM) was 0.224.
Cell Line LC-2-ad has a relative viability (Ponatinib; 0.002 µM) of 0.85, a relative viability (Ponatinib; 0.006325 µM) of 0.885 and a relative viability (Ponatinib; 0.06325 µM) of 0.785. The relative viability (Ponatinib; 0.2 µM) was 0.768, the relative viability (Pazopanib; 0.01 µM) was 1 and the relative viability (Pazopanib; 0.03162 µM) was 0.99. It also gave a relative viability (Pazopanib; 0.1 µM) of 1.01, a relative viability (Pazopanib; 0.3162 µM) of 1.07 and a relative viability (Pazopanib; 1 µM) of 1.07. The relative viability (Ponatinib + Alpelisib; first compound 0.002 µM) was 0.832, the relative viability (Ponatinib + Alpelisib; first compound 0.006325 µM) was 0.792 and the relative viability (Ponatinib + Alpelisib; first compound 0.06325 µM) was 0.648. It also gave a relative viability (Ponatinib + Alpelisib; first compound 0.2 µM) of 0.552, a relative viability (Pazopanib + Pemetrexed; first compound 0.01 µM) of 0.292 and a relative viability (Pazopanib + Pemetrexed; first compound 0.03162 µM) of 0.281. The relative viability (Pazopanib + Pemetrexed; first compound 0.1 µM) was 0.274, the relative viability (Pazopanib + Pemetrexed; first compound 0.3162 µM) was 0.311 and the relative viability (Pazopanib + Pemetrexed; first compound 1 µM) was 0.275.
In the case of LCLC-97TM1, the relative viability (Ponatinib; 0.002 µM) is reported as 0.925, the relative viability (Ponatinib; 0.006325 µM) is reported as 0.996 and the relative viability (Ponatinib; 0.06325 µM) is reported as 0.961. For the same cell line, the relative viability (Ponatinib; 0.2 µM) was 0.892, the relative viability (Pazopanib; 0.03162 µM) was 1 and the relative viability (Pazopanib; 0.1 µM) was 0.912. It also gave a relative viability (Pazopanib; 0.3162 µM) of 1.02, a relative viability (Pazopanib; 1 µM) of 1.04 and a relative viability (Ponatinib + Alpelisib; first compound 0.006325 µM) of 0.227. It also gave a relative viability (Ponatinib + Alpelisib; first compound 0.2 µM) of 0.314, a relative viability (Pazopanib + Pemetrexed; first compound 0.03162 µM) of 0.165 and a relative viability (Pazopanib + Pemetrexed; first compound 0.1 µM) of 0.136. It also gave a relative viability (Pazopanib + Pemetrexed; first compound 0.3162 µM) of 0.157 and a relative viability (Pazopanib + Pemetrexed; first compound 1 µM) of 0.154.
LCLC-103H gave a relative viability (Ponatinib; 0.002 µM) of 0.925, a relative viability (Ponatinib; 0.006325 µM) of 1 and a relative viability (Ponatinib; 0.06325 µM) of 1.05. It also gave a relative viability (Ponatinib; 0.2 µM) of 0.957, a relative viability (Pazopanib; 0.01 µM) of 0.762 and a relative viability (Pazopanib; 0.03162 µM) of 1.03. It also gave a relative viability (Pazopanib; 0.1 µM) of 0.984, a relative viability (Pazopanib; 0.3162 µM) of 0.948 and a relative viability (Pazopanib; 1 µM) of 1.04. For the same cell line, the relative viability (Ponatinib + Alpelisib; first compound 0.002 µM) was 0.89, the relative viability (Ponatinib + Alpelisib; first compound 0.006325 µM) was 0.969 and the relative viability (Ponatinib + Alpelisib; first compound 0.06325 µM) was 1.07. For the same cell line, the relative viability (Ponatinib + Alpelisib; first compound 0.2 µM) was 1.03, the relative viability (Pazopanib + Pemetrexed; first compound 0.01 µM) was 0.447 and the relative viability (Pazopanib + Pemetrexed; first compound 0.03162 µM) was 0.477. It also gave a relative viability (Pazopanib + Pemetrexed; first compound 0.1 µM) of 0.399, a relative viability (Pazopanib + Pemetrexed; first compound 0.3162 µM) of 0.494 and a relative viability (Pazopanib + Pemetrexed; first compound 1 µM) of 0.491.
Work on LK-2 yielded a relative viability (Ponatinib; 0.002 µM) of 0.872, a relative viability (Ponatinib; 0.006325 µM) of 1 and a relative viability (Ponatinib; 0.06325 µM) of 0.816. For the same cell line, the relative viability (Ponatinib; 0.2 µM) was 0.73, the relative viability (Pazopanib; 0.01 µM) was 0.891 and the relative viability (Pazopanib; 0.03162 µM) was 0.965. It also gave a relative viability (Pazopanib; 0.1 µM) of 0.943, a relative viability (Pazopanib; 0.3162 µM) of 0.928 and a relative viability (Pazopanib; 1 µM) of 0.858. The relative viability (Ponatinib + Alpelisib; first compound 0.002 µM) was 1.12, the relative viability (Ponatinib + Alpelisib; first compound 0.006325 µM) was 1.05 and the relative viability (Ponatinib + Alpelisib; first compound 0.06325 µM) was 1.17. The relative viability (Ponatinib + Alpelisib; first compound 0.2 µM) was 0.668, the relative viability (Pazopanib + Pemetrexed; first compound 0.01 µM) was 0.218 and the relative viability (Pazopanib + Pemetrexed; first compound 0.03162 µM) was 0.243. It also gave a relative viability (Pazopanib + Pemetrexed; first compound 0.1 µM) of 0.256, a relative viability (Pazopanib + Pemetrexed; first compound 0.3162 µM) of 0.346 and a relative viability (Pazopanib + Pemetrexed; first compound 1 µM) of 0.201.
Work on LOU-NH91 yielded a relative viability (Ponatinib; 0.002 µM) of 0.957, a relative viability (Ponatinib; 0.006325 µM) of 1.03 and a relative viability (Ponatinib; 0.06325 µM) of 1.04. It also gave a relative viability (Ponatinib; 0.2 µM) of 0.938, a relative viability (Pazopanib; 0.01 µM) of 0.903 and a relative viability (Pazopanib; 0.03162 µM) of 0.955. It also gave a relative viability (Pazopanib; 0.1 µM) of 0.949, a relative viability (Pazopanib; 0.3162 µM) of 1.11 and a relative viability (Pazopanib; 1 µM) of 1.01. It also gave a relative viability (Ponatinib + Alpelisib; first compound 0.002 µM) of 0.703, a relative viability (Ponatinib + Alpelisib; first compound 0.006325 µM) of 0.792 and a relative viability (Ponatinib + Alpelisib; first compound 0.06325 µM) of 0.822. The relative viability (Ponatinib + Alpelisib; first compound 0.2 µM) was 0.713, the relative viability (Pazopanib + Pemetrexed; first compound 0.01 µM) was 0.367 and the relative viability (Pazopanib + Pemetrexed; first compound 0.03162 µM) was 0.356. The relative viability (Pazopanib + Pemetrexed; first compound 0.1 µM) was 0.417, the relative viability (Pazopanib + Pemetrexed; first compound 0.3162 µM) was 0.416 and the relative viability (Pazopanib + Pemetrexed; first compound 1 µM) was 0.352.
For LU99A, the relative viability (Ponatinib; 0.002 µM) was 0.94, the relative viability (Ponatinib; 0.006325 µM) was 1.02 and the relative viability (Ponatinib; 0.06325 µM) was 0.943. The relative viability (Ponatinib; 0.2 µM) was 0.939, the relative viability (Pazopanib; 0.01 µM) was 0.759 and the relative viability (Pazopanib; 0.03162 µM) was 0.909. It also gave a relative viability (Pazopanib; 0.1 µM) of 1.01, a relative viability (Pazopanib; 0.3162 µM) of 1.03 and a relative viability (Pazopanib; 1 µM) of 1.01. For the same cell line, the relative viability (Ponatinib + Alpelisib; first compound 0.002 µM) was 0.519, the relative viability (Ponatinib + Alpelisib; first compound 0.006325 µM) was 0.453 and the relative viability (Ponatinib + Alpelisib; first compound 0.06325 µM) was 0.62. For the same cell line, the relative viability (Ponatinib + Alpelisib; first compound 0.2 µM) was 0.466, the relative viability (Pazopanib + Pemetrexed; first compound 0.03162 µM) was 0.19 and the relative viability (Pazopanib + Pemetrexed; first compound 0.1 µM) was 0.182. For the same cell line, the relative viability (Pazopanib + Pemetrexed; first compound 0.3162 µM) was 0.185 and the relative viability (Pazopanib + Pemetrexed; first compound 1 µM) was 0.136.
